pIC50: −log10 of the molar value.

The target of the assay is T1, human glucocorticoid receptor (GR) complex (Homo sapiens, UniProt P04150).
T1 construct: made in house; host or cells: insect expression system (baculovirus lysate)
T1 sequence (P04150 1-777): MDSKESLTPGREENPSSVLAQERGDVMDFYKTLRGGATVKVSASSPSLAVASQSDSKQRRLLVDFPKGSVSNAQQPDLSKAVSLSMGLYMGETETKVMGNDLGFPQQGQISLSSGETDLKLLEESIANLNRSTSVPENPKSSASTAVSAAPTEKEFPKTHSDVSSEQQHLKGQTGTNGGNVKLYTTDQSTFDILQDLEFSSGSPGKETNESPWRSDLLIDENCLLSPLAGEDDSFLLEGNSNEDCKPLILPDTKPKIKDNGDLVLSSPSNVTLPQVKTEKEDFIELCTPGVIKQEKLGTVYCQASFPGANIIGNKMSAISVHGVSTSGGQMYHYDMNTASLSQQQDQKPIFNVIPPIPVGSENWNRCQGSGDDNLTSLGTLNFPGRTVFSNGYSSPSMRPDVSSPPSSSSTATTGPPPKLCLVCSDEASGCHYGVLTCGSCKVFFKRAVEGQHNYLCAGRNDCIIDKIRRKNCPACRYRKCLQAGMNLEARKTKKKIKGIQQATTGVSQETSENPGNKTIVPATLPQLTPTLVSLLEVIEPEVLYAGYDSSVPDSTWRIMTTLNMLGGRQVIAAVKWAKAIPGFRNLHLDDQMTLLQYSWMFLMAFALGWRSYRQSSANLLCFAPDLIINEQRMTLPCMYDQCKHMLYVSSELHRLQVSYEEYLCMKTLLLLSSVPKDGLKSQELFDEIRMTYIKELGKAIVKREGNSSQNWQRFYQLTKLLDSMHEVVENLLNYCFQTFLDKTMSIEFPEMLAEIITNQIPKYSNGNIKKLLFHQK
Description: Glucocorticoid receptor competitive binding assay (fluorescence polarization). The conditions noted are these: competition with TAMRA-labeled dexamethasone, read-out: potent activity (IC50) in the GR binding assay. The procedure:
Compounds of the invention were evaluated for binding to the steroid receptor by a fluorescence polarization competitive binding assay. Detailed descriptions for preparation of recombinant glucocorticoid receptor (GR) complex used in the assay is described in U.S. Patent Application Publication No. US 2003/0017503, filed May 20, 2002, and incorporated herein by reference in its entirety. Preparation of the tetramethylrhodamine (TAMRA)-labeled dexamethasone probe was accomplished using a standard literature procedure (M. Pons et al., J. Steroid Biochem., 1985, 22, pp. 267-273).
The affinity of the probe for the steroid receptor was then determined in a titration experiment. The fluorescence polarization value of the probe in assay buffer was measured on an SLM-8100 fluorometer using the excitation and emission maximum values described above. Aliquots of expression vector lysate were added and fluorescence polarization was measured after each addition until no further change in polarization value was observed. Non-linear least squares regression analysis was used to calculate the dissociation constant of the probe from the polarization values obtained for lysate binding to the probe.
This assay uses fluorescence polarization (FP) to quantitate the ability of test compounds to compete with tetramethylrhodamine (TAMRA)-labeled dexamethasone for binding to a human glucocorticoid receptor (GR) complex prepared from an insect expression system. The assay buffer was: 10 mM TES, 50 mM KCl, 20 mM Na2MoO4.2H2O, 1.5 mM EDTA, 0.04% w/v CHAPS, 10% v/v glycerol, 1 mM dithiothreitol, pH 7.4. Test compounds were dissolved to 1 mM in neat DMSO and then further diluted to 10× assay concentration in assay buffer supplemented with 10% v/v DMSO. Test compounds were serially diluted at 10× assay concentrations in 10% DMSO-containing buffer in 96-well polypropylene plates. Binding reaction mixtures were prepared in 96-well black Dynex microtiter plates by sequential addition of the following assay components to each well: 15 μL of 10× test compound solution, 85 μL of GR-containing baculovirus lysate diluted 1:170 in assay buffer, and 50 μL of 15 nM TAMRA-labeled dexamethasone. Positive controls were reaction mixtures containing no test compound; negative controls (blanks) were reaction mixtures containing 0.7 μM to 2 μM dexamethasone. The binding reactions were incubated for 1 hour at room temperature and then read for fluorescence polarization in the LJL Analyst set to 550 nm excitation and 580 nm emission, with the Rhodamine 561 dichroic mirror installed. IC50 values were determined by iterative non-linear curve fitting of the FP signal data to a 4-parameter logistic equation.
For the molecule `Cc1cc(C)c(S(=O)(=O)NC(CSc2c(Cl)cccc2Cl)C(F)(F)F)c(C)c1` (stereo not shown) [N-[1-(2,6-Dichlorophenylsulfanylmethyl)-2,2,2-trifluoroethyl]-2,4,6-trimethylbenzenesulfonamide], the pIC50 (commonly the negative decadic logarithm of the IC50, by convention in mol/L) is not below 7.00.
In the case of `Cc1cc(C)c(S(=O)(=O)NC(CNc2cccc(-c3cnco3)c2)C(F)(F)F)c(C)c1` (stereo not shown) [2,4,6-Trimethyl-N-{2,2,2-trifluoro-1-[(3-oxazol-5-ylphenylamino)methyl]ethyl}benzenesulfonamide] it was not below 7.00; in that of `COc1ccc(N(Cc2ccccc2)CC(NS(=O)(=O)c2c(C)cc(C)cc2C)C(F)(F)F)cc1` (stereo not shown) [N-(1-{[Benzyl-(4-methoxyphenyl)amino]methyl}-2,2,2-trifluoroethyl)-2,4,6-trimethylbenzenesulfonamide], not below 7.00.
As to `Cc1cc(C)c(S(=O)(=O)NC(COc2cccc(Br)c2)C(F)(F)F)c(C)c1` (stereo not shown) [N-[1-(3-Bromophenoxymethyl)-2,2,2-trifluoroethyl]-2,4,6-trimethylbenzenesulfonamide], the pIC50 was not below 7.00.
In the case of `CCCN(CC(NS(=O)(=O)c1c(C)cc(C)cc1C)C(F)(F)F)c1ccccc1` (stereo not shown) it was not below 7.00.
In the case of `Cc1cc(C)c(S(=O)(=O)NC(CSc2ccc(Cl)c(Cl)c2)C(F)(F)F)c(C)c1` (stereo not shown) [N-[1-(3,4-Dichlorophenylsulfanylmethyl)-2,2,2-trifluoroethyl]-2,4,6-trimethylbenzenesulfonamide] it was not below 7.00; in that of `Cc1cc(C)cc(OCC(NS(=O)(=O)c2c(C)cc(C)cc2C)C(F)(F)F)c1` (stereo not shown) [N-[1-(3,5-Dimethylphenoxymethyl)-2,2,2-trifluoroethyl]-2,4,6-trimethylbenzenesulfonamide], not below 7.00; in that of `Cc1cc(C)c(S(=O)(=O)NC(COc2ccccc2C)C(F)(F)F)c(C)c1` (stereo not shown) [2,4,6-Trimethyl-N-(2,2,2-trifluoro-1-o-tolyloxymethylethyl)benzenesulfonamide], not below 7.00.
`Cc1cc(C)c(S(=O)(=O)NC(CSc2ccccc2Cl)C(F)(F)F)c(C)c1` (stereo not shown) [N-[1-(2-Chlorophenylsulfanylmethyl)-2,2,2-trifluoroethyl]-2,4,6-trimethylbenzenesulfonamide]: the pIC50 was not below 7.00.
For `Cc1cc(C)c(S(=O)(=O)NC(COc2cccc3c2CCCC3)C(F)(F)F)c(C)c1` (stereo not shown) [2,4,6-Trimethyl-N-[2,2,2-trifluoro-1-(5,6,7,8-tetrahydronaphthalen-1-yloxymethyl)ethyl]benzenesulfonamide], the pIC50 is not below 7.00.
For the molecule `Cc1cc(C)c(S(=O)(=O)NC(COc2ccc(F)cc2C)C(F)(F)F)c(C)c1` (stereo not shown) [2,4,6-Trimethyl-N-[2,2,2-trifluoro-1-(4-fluoro-2-methylphenoxymethyl)ethyl]benzenesulfonamide], the pIC50 is not below 7.00.
As for `Cc1cc(C)c(S(=O)(=O)NC(CSc2ccc(Cl)cc2)C(F)(F)F)c(C)c1` (stereo not shown) [N-[1-(4-Chlorophenylsulfanylmethyl)-2,2,2-trifluoroethyl]-2,4,6-trimethylbenzenesulfonamide], the figure is not below 7.00; as for `Cc1cc(C)c(S(=O)(=O)NC(CSc2ccc(Br)cc2OC(F)(F)F)C(F)(F)F)c(C)c1` (stereo not shown) [N-[1-(4-Bromo-2-trifluoromethoxyphenylsulfanylmethyl)-2,2,2-trifluoroethyl]-2,4,6-trimethylbenzenesulfonamide], not below 7.00.
As for `Cc1cc(C)c(S(=O)(=O)NC(CNc2cccc(Cl)c2C#N)C(F)(F)F)c(C)c1` (stereo not shown) [N-{1-[(3-Chloro-2-cyanophenylamino)methyl]-2,2,2-trifluoroethyl}-2,4,6-trimethylbenzenesulfonamide], the figure is not below 7.00; as for `Cc1cc(C)c(S(=O)(=O)NC(CNc2ccc(Cl)cc2C#N)C(F)(F)F)c(C)c1` (stereo not shown) [N-{1-[(4-Chloro-2-cyanophenylamino)methyl]-2,2,2-trifluoroethyl}-2,4,6-trimethylbenzenesulfonamide], not below 7.00; as for `Cc1cc(C)c(S(=O)(=O)NC(CNc2ccccc2)C(F)(F)F)c(C)c1` (stereo not shown) [2,4,6-Trimethyl-N-(2,2,2-trifluoro-1-phenylaminomethylethyl)benzenesulfonamide], not below 7.00.
As for `Cc1ccc(NCC(NS(=O)(=O)c2c(C)cc(C)cc2C)C(F)(F)F)cc1` (stereo not shown) [2,4,6-Trimethyl-N-[2,2,2-trifluoro-1-(p-tolylaminomethyl)ethyl]benzenesulfonamide], the figure is not below 7.00; as for `Cc1ccc(SCC(NS(=O)(=O)c2c(N)cc(Cl)cc2Cl)C(F)(F)F)cc1` (stereo not shown) [2-Amino-4,6-dichloro-N-(2,2,2-trifluoro-1-p-tolylsulfanylmethylethyl)benzenesulfonamide], not below 7.00; as for `Cc1cc(C)c(S(=O)(=O)NC(CSc2ccccc2Br)C(F)(F)F)c(C)c1` (stereo not shown) [N-[1-(2-Bromophenylsulfanylmethyl)-2,2,2-trifluoroethyl]-2,4,6-trimethylbenzenesulfonamide], not below 7.00.
As to `Cc1cc(C)c(S(=O)(=O)NC(CNc2cccc(Cl)c2)C(F)(F)F)c(C)c1` (stereo not shown) [N-{1-[(3-Chlorophenylamino)methyl]-2,2,2-trifluoroethyl}-2,4,6-trimethylbenzenesulfonamide], the pIC50 was not below 7.00.
Consider `Cc1cc(C)c(S(=O)(=O)NC(CSc2ccccc2C(C)C)C(F)(F)F)c(C)c1` (stereo not shown) [2,4,6-Trimethyl-N-[2,2,2-trifluoro-1-(2-isopropylphenylsulfanylmethyl)ethyl]benzenesulfonamide], for which the pIC50 was not below 7.00.
For the molecule `Cc1cc(C)c(S(=O)(=O)NC(CSc2ccc(F)cc2Cl)C(F)(F)F)c(C)c1` (stereo not shown) [N-[1-(2-Chloro-4-fluorophenylsulfanylmethyl)-2,2,2-trifluoroethyl]-2,4,6-trimethylbenzenesulfonamide], the pIC50 is not below 7.00.
For the molecule `Cc1cc(C)c(S(=O)(=O)NC(COc2cc(C)c(C#N)c(C)c2)C(F)(F)F)c(C)c1` (stereo not shown) [N-[1-(4-Cyano-3,5-dimethylphenoxymethyl)-2,2,2-trifluoroethyl]-2,4,6-trimethylbenzenesulfonamide], the pIC50 was not below 7.00.
Turning to `COC(=O)c1cccc(NCC(NS(=O)(=O)c2c(C)cc(C)cc2C)C(F)(F)F)c1` (stereo not shown) [3-[3,3,3-Trifluoro-2-(2,4,6-trimethylbenzenesulfonylamino)propylamino]benzoic acid methyl ester], the pIC50 was not below 7.00.
As to `Cc1cc(C)c(S(=O)(=O)NC(COc2cccc3c2CCC3=O)C(F)(F)F)c(C)c1` (stereo not shown) [2,4,6-Trimethyl-N-[2,2,2-trifluoro-1-(1-oxoindan-4-yloxymethyl)ethyl]benzenesulfonamide], the pIC50 was not below 7.00.
In the case of `COC(=O)c1ccccc1N(C)CC(NS(=O)(=O)c1c(C)cc(C)cc1C)C(F)(F)F` (stereo not shown) [2-{Methyl-[3,3,3-trifluoro-2-(2,4,6-trimethylbenzenesulfonylamino)propyl]amino}benzoic acid methyl ester], the pIC50 is not below 7.00.
As for `Cc1cc(C)c(S(=O)(=O)NC(COc2ccc(Br)cc2C)C(F)(F)F)c(C)c1` (stereo not shown) [N-[1-(4-Bromo-2-methylphenoxymethyl)-2,2,2-trifluoroethyl]-2,4,6-trimethylbenzenesulfonamide], the figure is not below 7.00.
As for `CC[C@@H](CNc1ccc(C)cc1C)NS(=O)(=O)c1c(C)cc(C)cc1C` [N-{(S)-1-[(2,4-Dimethylphenylamino)methyl]propyl}-2,4,6-trimethylbenzenesulfonamide], the figure is not below 7.00.

The values are drawn from patent US20100048950A1 (BOEHRINGER INGELHEIM INTERNATIONAL GMBH, priority 2007, published 2010).
